Article PMC10714399, “Open Source Antibiotics: Simple Diarylimidazoles Are Potent against Methicillin-Resistant Staphylococcus aureus” (ACS Infectious Diseases, 2023)
Converted amounts (≈) assume the structure as drawn. “And” between values parts separate entries of the source, which are not always exact repeats. Equal entries are not always repeated. Where two headings read alike, the source gives them in different places.

Tests used:
[1] = test system: Staphylococcus aureus NCTC 13373 (mecA-positive; methicillin-resistant); experiment: In vitro antibacterial activity, MIC (UCL School of Pharmacy assay), MRSA; format: cell-based; details: for MIC: Staphylococcus aureus
Protocol: (§1) Staphylococcus aureus NCTC 13373 (mecA-positive; methicillin-resistant, NCTC 13373) was supplied by the National Collection of Type Cultures (NCTC), Public Health England, United Kingdom. Other organisms, S. aureus ATCC 25923 (methicillin-susceptible) and Enterococcus faecalis ATCC 51299 (vanA-positive; vancomycin-resistant), were obtained from the American Type Culture Collection (ATCC) via LGC Standards, UK. A suspension of each organism was prepared from an overnight plate culture (tryptone soya agar) in phosphate-buffered saline (PBS) and adjusted to an absorbance reading at 600 nm of 0.1, which is approximately equivalent to 1 × 10^8 colony-forming units (CFU) per mL. The cultures were further diluted 1:100 in isosensitest broth (Oxoid, United Kingdom) before 100 μL was used to inoculate each well of a 96-well plate that contained diluted samples of the OSA series. Compounds were evaluated over a 2-fold dilution range from 32 to 0.03 μg/mL. Stocks of the samples were prepared in 100% DMSO at […] before being diluted in isosenstitest broth. The highest concentration of DMSO present was 2%, which has been previously shown not to inhibit the growth of the microorganisms (data not shown). […] Vancomycin was used as a quality control compound.

[2] = test system: S. aureus ATCC 25923 (methicillin-susceptible); experiment: In vitro antibacterial activity, MIC (UCL), MSSA; format: cell-based, Staphylococcus aureus; details: for MIC: Staphylococcus aureus
Protocol: as §1

[3] = test system: MRC-5SV2 (human lung fibroblast cell line); experiment: Toxicity against MRC-5SV2; format: cell-based
Protocol: (§2) ADME and toxicity for compounds were measured according to procedures outlined in the manuscript submitted in parallel to this one;2 other procedures were used for those compounds analysed by Monash University (in vitro ADME) or UCL (toxicity), both described in the main

[4] = test system: PMM (primary mouse macrophages); experiment: Toxicity against PMM; format: cell-based
Protocol: as §2

[5] = test system: Enterococcus faecalis ATCC 51299 (vanA-positive; vancomycin-resistant); experiment: In vitro antibacterial activity, MIC (UCL), VRE; format: cell-based
Protocol: as §1

[6] = UCL assay, read-out: MRSA MIC (ug/mL) (UCL)
[7] = UCL assay, read-out: MSSA MIC (ug/mL) (UCL)

Row | Structure (SMILES) | MRSA MIC [1] | MSSA MIC [2] [µg/mL] | MIC [1, 6] [µg/mL] | MIC [2, 7] [µg/mL] | MIC ([1]; read-out: MRSA MIC) [µg/mL] | MIC ([2]; read-out: MSSA MIC) [µg/mL] | VRE MIC [5] [µg/mL] | MRC5 TC50 [3] [µg/mL] | PMM TC50 [4] [µg/mL] | MRC5 TC50 ([3]; MRC5 cells) [µM] | PMM TC50 ([4]; PMM) [µM]
1 | Cc1ccc2nc(-c3ccccc3)cn2c1 [compound 1026] | > 32 µg/mL and 32 µg/mL | > 32 | – | – | – | – | – | 13.3 | 13.3 | – | –
2 | Fc1ccc(-c2c(-c3ccccn3)nc3n2CCC3)cc1 [OSA_001053] | – | – | > 32 | > 32 | – | – | – | – | – | 7.55 | 32
3 | FC(F)(F)c1ccc(-c2c(-c3ccccn3)nc3n2CCC3)cc1 [compound 1052] | – | – | – | – | 16 (≈ 48.6 µM) | 16 (≈ 48.6 µM) | – | 2.7 | 10.5 | – | –
4 | Nc1ccc(-c2c(-c3ccccn3)nc3n2CCC3)cc1 [compound 1074] | > 32 µg/mL and 32 µg/mL | > 32 | – | – | – | – | – | 1.6 | 2.2 | – | –
5 | Cc1ccc2nc(-c3ccccc3)cn2c1 [OSA_001026] | – | – | > 32 | > 32 | – | – | – | – | – | 64 | 64
6 | Fc1cc(-c2c(-c3ccccn3)nc3n2CCC3)ccn1 [compound 1073] | > 32 µg/mL and 32 µg/mL | > 32 | – | – | – | – | – | 8.6 | 9.0 | – | –
7 | Cc1ccn2c(CNc3ccc(F)cc3)c(-c3ccccn3)nc2c1 [OSA_001031] | – | – | > 32 | > 32 | – | – | – | – | – | 64 | 64
8 | CS(=O)(=O)c1ccc2nc(-c3ccccn3)c(Nc3ccc(F)cc3)n2c1 [compound 1020] | > 32 µg/mL and 32 µg/mL | > 32 | – | – | – | – | – | 24.5 | 12.2 | – | –
9 | Cc1ccc2nc(-c3ccccc3)c(CNc3cccc(C(F)(F)F)c3)n2c1 [compound 1028] | > 32 µg/mL and 32 µg/mL | > 32 | – | – | – | – | – | 24.4 | 24.4 | – | –
10 | COc1ccn2c(Nc3ccccc3F)c(-c3ccccn3)nc2c1 [compound 851] | 8 µg/mL | 4 | – | – | – | – | 16 | – | – | – | –

Second part, led by results:

Row | MRSA MIC [1] | MSSA MIC [2] [µg/mL] | MIC [1, 6] [µg/mL] | MIC [2, 7] [µg/mL] | MIC ([1]; read-out: MRSA MIC) [µg/mL] | MIC ([2]; read-out: MSSA MIC) [µg/mL] | VRE MIC [5] [µg/mL] | Structure (SMILES) | MRC5 TC50 [3] [µg/mL] | PMM TC50 [4] [µg/mL] | MRC5 TC50 ([3]; MRC5 cells) [µM] | PMM TC50 ([4]; PMM) [µM]
11 | – | – | > 32 | > 32 | – | – | – | Fc1cc(-c2c(-c3ccccn3)nc3n2CCC3)ccn1 [OSA_001073] | – | – | 30.55 | 32
12 | > 32 µg/mL and 32 µg/mL | > 32 | – | – | – | – | – | N#Cc1ccc(-c2c(-c3ccccn3)nc3n2CCC3)cn1 [compound 1075] | 18.4 | 18.4 | – | –
13 | – | – | 8 (≈ 18.3 µM) | 8 (≈ 18.3 µM) | – | – | – | CCCCN(Cc1c(-c2ccccc2)nc2ccc(C)cn12)c1cccc(C(F)(F)F)c1 [OSA_001029] | – | – | 1.19 | 8
14 | – | – | > 32 | > 32 | – | – | – | Cc1ccc2nc(-c3ccccc3)c(CNc3ccc(F)cc3)n2c1 [OSA_001027] | – | – | 64 | 64
15 | > 32 µg/mL and 32 µg/mL | > 32 | – | – | – | – | – | Cc1ccn2cc(-c3ccccn3)nc2c1 [compound 1030] | 4.6 | 13.4 | – | –
16 | – | – | > 32 | > 32 | – | – | – | N#Cc1ccc(-c2c(-c3ccccn3)nc3n2CCC3)cc1C(F)(F)F [OSA_001077] | – | – | 64 | 64
17 | 8 µg/mL | 8 | – | – | – | – | – | CCCCN(Cc1c(-c2ccccc2)nc2ccc(C)cn12)c1cccc(C(F)(F)F)c1 [compound 1029] | 0.5 | 3.5 | – | –
18 | > 32 µg/mL and 32 µg/mL | > 32 | – | – | – | – | – | COc1cc(-c2c(-c3ccccn3)nc3n2CCC3)ccc1C#N [compound 1076] | 8.8 | 20.2 | – | –
19 | – | – | > 32 | > 32 | – | – | – | Nc1ccc(-c2c(-c3ccccn3)nc3n2CCC3)cc1 [OSA_001074] | – | – | 5.73 | 8
